Measurements from patent US12662676B2, “Aptamer nucleic acid molecule, and complex and application thereof” (EAST CHINA UNIVERSITY OF SCIENCE AND TECHNOLOGY, priority 2019, dated 2026).

Test: Fluorescence activation of III-3 fluorophore by Pepper aptamers and mutants
Format: biochemical
Details: for Activation folds: 1 μM III-3 with 5 μM RNA; for fluorescence activation of III-3 by base-modified Pepper: deoxyribonucleotide or 2′-F modification in stem-loop region
Protocol: Preparation of Pepper or Pepper mutant aptamer according to the commonly used experimental method (1). 5 μM aptamer and 1 μM fluorophore were incubated in the detection buffer (40 mM HEPES, pH 7.4, 125 mM KCl, 5 mM MgCl2, 5% DMSO). The maximal excitation and emission peaks of the aptamer-fluorophore complexes were determined using a Synergy Neo2 multifunctional microplate reader. The fluorescence intensities of the aptamer-fluorophore complexes at the maximal excitation and emission peaks were determined using a Synergy Neo2 multifunctional microplate reader. The control sample (1 μM fluorophore without aptamer) was also measured under the same conditions. Then the ratios of fluorescence intensity were calculated. For example, the fluorescence maximal excitation and emission peaks of the complex of 5 μM F30-Pepper-2 and 1 μM III-3 fluorophore are 485 nm and 530 nm, respectively. The fluorescence intensity of the complex at 485±10 nm excitation and 530 nm±10 nm emission was 36,000, the fluorescence intensity of the control sample (1 μM III-3 fluorophore only) under the same detection conditions was 10. Thus, the activation ratio of F30-Pepper-2 aptamer on III-3 fluorophore was 3,600-fold.
In order to detect the fluorescence activation of III-3 fluorophore by different Pepper mutant, the Pepper-1 sequence in F30-Pepper-1 was mutated according to Table 1. […] 1 μM III-3 was incubated with […] RNA and their fluorescence activation folds were determined according to the commonly used experimental method (5). […] In summary, many Pepper mutants containing single and multiple mutants still retain the ability to activate the fluorescence of III-3 fluorophore.
In order to detect the activation of III-3 by modified Pepper, base-modified Pepper-3 was synthesized (SEQ ID NO: 6, the underlined nucleotides in […] GGCC contain deoxyribonucleotide bases) and Pepper-4 (SEQ ID NO: 7, the underlined nucleotides in […] GGGCC contain 2′-F modification) (synthesized by Shanghai GenePharma Co., Ltd), which contain deoxyribonucleotides replacement (shaded bases in FIG. 5A) or 2′-F modification (shaded bases in FIG. 5B) in the stem-loop region of Pepper. Detection of the fluorescence activation of III-3 fluorophore by these modified Peppers was carried out according to the commonly used experimental method (5).

[1] = Activation of III-3 by Pepper mutants with single mutation

Substance	Activation folds [1] [folds]	other results
C2U/G31A: F30-Pepper-1 mutant aptamer (NUCAAUCGUGGCGUGUCGNNNACUGGCGCCAN; Pepper mutant embedded in F30 scaffold, chemistry not given here, further chemistry not given here)		Activation folds (Activation of III-3 by Pepper mutants with multiple mutations): 3256 folds
C3A: F30-Pepper-1 mutant aptamer (NCAAAUCGUGGCGUGUCGNNNACUGGCGCCGN; RNA, backbone, methylation of C and the base at N not given here; Pepper aptamer mutant embedded in F30 scaffold) [Compound C3A]	2484	
C3U: F30-Pepper-1 mutant aptamer (NCUAAUCGUGGCGUGUCGNNNACUGGCGCCGN; RNA, backbone, methylation of C and the base at N not given here; Pepper aptamer mutant embedded in F30 scaffold) [Compound C3U]	2016	
C7A: F30-Pepper-1 mutant aptamer (NCCAAUAGUGGCGUGUCGNNNACUGGCGCCGN; RNA, backbone, methylation of C and the base at N not given here; Pepper aptamer mutant embedded in F30 scaffold) [Compound C7A]	1044	
C7U: F30-Pepper-1 mutant aptamer (NCCAAUUGUGGCGUGUCGNNNACUGGCGCCGN; RNA, backbone, methylation of C and the base at N not given here; Pepper aptamer mutant embedded in F30 scaffold) [Compound C7U]	2268	
C12U: F30-Pepper-1 mutant aptamer (NCCAAUCGUGGUGUGUCGNNNACUGGCGCCGN; Pepper mutant embedded in F30 scaffold, chemistry not given here, further chemistry not given here) [Compound C12U]	2268	
C27G: F30-Pepper-1 mutant aptamer (NCCAAUCGUGGCGUGUCGNNNACUGGGGCCGN; Pepper mutant embedded in F30 scaffold, chemistry not given here, further chemistry not given here) [Compound C27G]	1875	
C27U: F30-Pepper-1 mutant aptamer (NCCAAUCGUGGCGUGUCGNNNACUGGUGCCGN; Pepper mutant embedded in F30 scaffold, chemistry not given here, further chemistry not given here) [Compound C27U]	3158	
C29G: F30-Pepper-1 mutant aptamer (NCCAAUCGUGGCGUGUCGNNNACUGGCGGCGN; Pepper mutant embedded in F30 scaffold, chemistry not given here, further chemistry not given here) [Compound C29G]	2145	
C29U: F30-Pepper-1 mutant aptamer (NCCAAUCGUGGCGUGUCGNNNACUGGCGUCGN; Pepper mutant embedded in F30 scaffold, chemistry not given here, further chemistry not given here) [Compound C29U]	1437	
C30A: F30-Pepper-1 mutant aptamer (NCCAAUCGUGGCGUGUCGNNNACUGGCGCAGN; RNA, backbone, methylation of C and the base at N not given here; Pepper aptamer mutant embedded in F30 scaffold) [Compound C30A]	1596	
C30U: F30-Pepper-1 mutant aptamer (NCCAAUCGUGGCGUGUCGNNNACUGGCGCUGN; RNA, backbone, methylation of C and the base at N not given here; Pepper aptamer mutant embedded in F30 scaffold) [Compound C30U]	2587	
G11A: F30-Pepper-1 mutant aptamer (NCCAAUCGUGACGUGUCGNNNACUGGCGCCGN; RNA, backbone, methylation of C and the base at N not given here; Pepper aptamer mutant embedded in F30 scaffold) [Compound G11A]	1526	
G11U: F30-Pepper-1 mutant aptamer (NCCAAUCGUGUCGUGUCGNNNACUGGCGCCGN; RNA, backbone, methylation of C and the base at N not given here; Pepper aptamer mutant embedded in F30 scaffold) [Compound G11U]	1512	
G13C: F30-Pepper-1 mutant aptamer (NCCAAUCGUGGCCUGUCGNNNACUGGCGCCGN; RNA, backbone, methylation of C and the base at N not given here; Pepper aptamer mutant embedded in F30 scaffold) [Compound G13C]	1758	
G18C: F30-Pepper-1 mutant aptamer (NCCAAUCGUGGCGUGUCCNNNACUGGCGCCGN; RNA, backbone, methylation of C and the base at N not given here; Pepper aptamer mutant embedded in F30 scaffold) [Compound G18C]	1028	
G18U: F30-Pepper-1 mutant aptamer (NCCAAUCGUGGCGUGUCUNNNACUGGCGCCGN; RNA, backbone, methylation of C and the base at N not given here; Pepper aptamer mutant embedded in F30 scaffold) [Compound G18U]	1024	
G28U: F30-Pepper-1 mutant aptamer (NCCAAUCGUGGCGUGUCGNNNACUGGCUCCGN; RNA, backbone and the base at N not given here; Pepper variant inserted in F30 scaffold RNA) [Compound G28U]	873	
Pepper-3: base-modified Pepper, SEQ ID NO: 6, deoxyribonucleotides replacement in the stem-loop region (GGCCCCCAAUCGUGGCGUGUCGGCCUGCUUCGGCAGGCACUGGCGCCGGGGCC; deoxyribonucleotides at some stem-loop positions, underlined positions not recoverable, further chemistry not given here)		fluorescence activation of III-3 by base-modified Pepper: significantly activate the fluorescence of III-3 fluorophore
Pepper-4: base-modified Pepper, SEQ ID NO: 7, 2′-F modification in the stem-loop region (GGCCCCCCAAUCGUGGCGUGUCGGCCUGCUUCGGCAGGCACUGGCGCCGGGGGCC; 2'-fluoro at some stem-loop positions, underlined positions not recoverable, further chemistry not given here)		fluorescence activation of III-3 by base-modified Pepper: significantly activate the fluorescence of III-3 fluorophore
U6A: F30-Pepper-1 mutant aptamer (NCCAAACGUGGCGUGUCGNNNACUGGCGCCGN; RNA, backbone and the base at N not given here; Pepper variant inserted in F30 scaffold RNA) [Compound U6A]	1872	
U6C: F30-Pepper-1 mutant aptamer (NCCAACCGUGGCGUGUCGNNNACUGGCGCCGN; RNA, backbone and the base at N not given here; Pepper variant inserted in F30 scaffold RNA) [Compound U6C]	2088	
U9A: F30-Pepper-1 mutant aptamer (NCCAAUCGAGGCGUGUCGNNNACUGGCGCCGN; RNA, backbone and the base at N not given here; Pepper variant inserted in F30 scaffold RNA) [Compound U9A]	2124	
U14A: F30-Pepper-1 mutant aptamer (NCCAAUCGUGGCGAGUCGNNNACUGGCGCCGN; RNA, backbone and the base at N not given here; Pepper variant inserted in F30 scaffold RNA) [Compound U14A]	1524	
